Test results reported in US8349870B2 (priority 2008, dated 2013).
Where two headings read alike, the source gives them in different places.

What was measured:
Format in all cases: in vivo
[1] = system: Plasmopara viticola; assay: Test A: grape downy mildew, spray after inoculation, visual disease rating (% disease control); details: 100 = 100% disease control, 0 = no control
From the text: General protocol for preparing test suspensions for Test A-C: The test compounds were first dissolved in acetone in an amount equal to 3% of the final volume and then suspended at the desired concentration (in ppm) in acetone and purified water (50/50 mix by volume) containing 250 ppm of the surfactant Trem® 014 (polyhydric alcohol esters). The resulting test suspensions were then used in Tests A-C. Spraying a 200 ppm test suspension to the point of run-off on the test plants was equivalent to a rate of 500 g/ha.
Grape seedlings were inoculated with a spore suspension of Plasmopara viticola (the causal agent of grape downy mildew) and incubated in a saturated atmosphere at 20° C. for 24 h. After a short drying period, the test suspension was sprayed to the point of run-off on the grape seedlings, which were then moved to a growth chamber at 20° C. for 5 days, after which time the grape seedling were placed back into a saturated atmosphere at 20° C. for 24 h. Upon removal, visual disease ratings were made.
Results for Tests A-C are given in Table A. In the table, a rating of 100 indicates 100% disease control and a rating of 0 indicates no disease control (relative to the controls). A dash (-) indicates no test results, “*” indicates compound was tested at 40 ppm and “**” indicates compound was tested at 10 ppm.

[2] = system: Phytophthora infestans; details: tomato late blight, sprayed the day before inoculation
[3] = system: Phytophthora infestans; details: tomato late blight, sprayed 17 h after inoculation
[4] = Cmpd No. unmarked, rate not stated in table (b1197 mentions a 200 ppm test suspension)

## CC(=O)C(=O)N1CCC(c2nc(C3=NOC(c4c(F)cccc4F)C3)cs2)CC1 (stereo not drawn) [compound 65]
[1]; "*" compound tested at 40 ppm
  Test A rating (% disease control): 88%
[2]; "*" compound tested at 40 ppm
  Test B rating (% disease control): 100%
[3]; "*" compound tested at 40 ppm
  Test C rating (% disease control): 99%

## CC(C)CC(=O)C(=O)N1CCC(c2nc(C3=NOC(c4c(F)cccc4F)C3)cs2)CC1 (stereo not drawn) [compound 69]
[1]; "*" compound tested at 40 ppm
  Test A rating (% disease control): 99%
[2]; "*" compound tested at 40 ppm
  Test B rating (% disease control): 84%
[3]; "*" compound tested at 40 ppm
  Test C rating (% disease control): 64%

## Cc1ccc(C)c(N=C(N2CCOCC2)N2CCC(c3nc(C4=NOC(c5ccccc5)C4)cs3)CC2)c1 (stereo not drawn) [compound 30]
[1]; "*" compound tested at 40 ppm
  Test A rating (% disease control): 58%
[2]; "*" compound tested at 40 ppm
  Test B rating (% disease control): 64%
[3]; "*" compound tested at 40 ppm
  Test C rating (% disease control): 17%

## Cc1ccc(C)c(N=C(N)N2CCC(c3nc(C4=NOC(c5ccccc5)C4)cs3)CC2)c1 (stereo not drawn) [compound 23]
[1]; "**" compound tested at 10 ppm
  Test A rating (% disease control): 79%
[2]; "**" compound tested at 10 ppm
  Test B rating (% disease control): 100%
[3]; "**" compound tested at 10 ppm
  Test C rating (% disease control): 33%

## CCCCCCC(=O)N1CCC(c2nc(C3=NOC(c4c(F)cccc4F)C3)cs2)CC1 (stereo not drawn) [compound 73]
[1]; "*" compound tested at 40 ppm
  Test A rating (% disease control): 99%
[2]; "*" compound tested at 40 ppm
  Test B rating (% disease control): 100%
[3]; "*" compound tested at 40 ppm
  Test C rating (% disease control): 99%

## O=C(NC1CCCC1)N1CCC(c2nc(C3=NOC(c4ccccc4)C3)cs2)CC1 (stereo not drawn) [compound 19]
[1]; "*" compound tested at 40 ppm
  Test A rating (% disease control): 67%
[2]; "*" compound tested at 40 ppm
  Test B rating (% disease control): 100%
[3]; "*" compound tested at 40 ppm
  Test C rating (% disease control): 63%

## CS(=O)(=O)CC(=O)N1CCC(c2nc(C3=NOC(c4c(F)cccc4F)C3)cs2)CC1 (stereo not drawn) [compound 62]
[1]; "*" compound tested at 40 ppm
  Test A rating (% disease control): 99%
[2]; "*" compound tested at 40 ppm
  Test B rating (% disease control): 99%
[3]; "*" compound tested at 40 ppm
  Test C rating (% disease control): 95%

## CCC(O)C(=O)N1CCC(c2nc(C3=NOC(c4c(F)cccc4F)C3)cs2)CC1 (stereo not drawn) [compound 48]
[1]; "*" compound tested at 40 ppm
  Test A rating (% disease control): 88%
[2]; "*" compound tested at 40 ppm
  Test B rating (% disease control): 100%
[3]; "*" compound tested at 40 ppm
  Test C rating (% disease control): 91%

## CCN(CC)C(=O)N1CCC(c2nc(C3=NOC(c4ccccc4)C3)cs2)CC1 (stereo not drawn) [compound 12]
[1]; [4]
  Test A rating (% disease control): 8%
[2]; [4]
  Test B rating (% disease control): 40%
[3]; [4]
  Test C rating (% disease control): 0%

## CNC(=Nc1cc(C)ccc1C)N1CCC(c2nc(C3=NOC(c4c(F)cccc4F)C3)cs2)CC1 (stereo not drawn) [compound 35]
[1]; "*" compound tested at 40 ppm
  Test A rating (% disease control): 0%
[2]; "*" compound tested at 40 ppm
  Test B rating (% disease control): 86%
[3]; "*" compound tested at 40 ppm
  Test C rating (% disease control): 26%

## CC(C)CC(O)C(=O)N1CCC(c2nc(C3=NOC(c4c(F)cccc4F)C3)cs2)CC1 (mixture of isomers) [compound 56]
[1]; "*" compound tested at 40 ppm
  Test A rating (% disease control): 98%
[2]; "*" compound tested at 40 ppm
  Test B rating (% disease control): 84%
[3]; "*" compound tested at 40 ppm
  Test C rating (% disease control): 50%

## CCC(C)C(=O)C(=O)N1CCC(c2nc(C3=NOC(c4c(F)cccc4F)C3)cs2)CC1 (stereo not drawn) [compound 70]
[1]; "*" compound tested at 40 ppm
  Test A rating (% disease control): 100%
[2]; "*" compound tested at 40 ppm
  Test B rating (% disease control): 100%
[3]; "*" compound tested at 40 ppm
  Test C rating (% disease control): 88%

## O=C(C(=O)N1CCC(c2nc(C3=NOC(c4ccccc4F)C3)cs2)CC1)c1cccs1 (stereo not drawn) [compound 46]
[1]; "*" compound tested at 40 ppm
  Test A rating (% disease control): 0%
[2]; "*" compound tested at 40 ppm
  Test B rating (% disease control): 0%
[3]; "*" compound tested at 40 ppm
  Test C rating (% disease control): 0%

## O=C(C(O)Cc1ccccc1)N1CCC(c2nc(C3=NOC(c4c(F)cccc4F)C3)cs2)CC1 (mixture of isomers) [compound 50]
[1]; "*" compound tested at 40 ppm
  Test A rating (% disease control): 0%
[2]; "*" compound tested at 40 ppm
  Test B rating (% disease control): 87%
[3]; "*" compound tested at 40 ppm
  Test C rating (% disease control): 0%

## Cc1ccc(C)c(N=CN2CCC(c3nc(C4=NOC(c5ccccc5)C4)cs3)CC2)c1 (stereo not drawn) [Example 2, N-[[4-[4-(4,5-dihydro-5-phenyl-3-isoxazolyl)-2-thiazolyl]-1-piperidinyl]methylene]-2,5-dimethylbenzenamine]
[1]; [4]
  Test A rating (% disease control): 17%
[2]; [4]
  Test B rating (% disease control): 88%
[3]; [4]
  Test C rating (% disease control): 0%

## Cc1ccc(C)c(N=C(N)N2CCC(c3nc(C4=NOC(c5c(F)cccc5F)C4)cs3)CC2)c1 (stereo not drawn) [compound 31]
[1]; "*" compound tested at 40 ppm
  Test A rating (% disease control): 99%
[2]; "*" compound tested at 40 ppm
  Test B rating (% disease control): 100%
[3]; "*" compound tested at 40 ppm
  Test C rating (% disease control): 97%

## Cc1ccc(C)c(C(=O)C(=O)N2CCC(c3nc(C4=NOC(c5ccccc5F)C4)cs3)CC2)c1 (stereo not drawn) [compound 40]
[1]; "*" compound tested at 40 ppm
  Test A rating (% disease control): 99%
[2]; "*" compound tested at 40 ppm
  Test B rating (% disease control): 100%
[3]; "*" compound tested at 40 ppm
  Test C rating (% disease control): 98%

## CCCNC(=O)N1CCC(c2nc(C3=NOC(c4ccccc4)C3)cs2)CC1 (stereo not drawn) [compound 14]
[1]; [4]
  Test A rating (% disease control): 88%
[2]; [4]
  Test B rating (% disease control): 100%
[3]; [4]
  Test C rating (% disease control): 99%

## CCCC(=O)C(=O)N1CCC(c2nc(C3=NOC(c4c(F)cccc4F)C3)cs2)CC1 (stereo not drawn) [compound 67]
[1]; "*" compound tested at 40 ppm
  Test A rating (% disease control): 100%
[2]; "*" compound tested at 40 ppm
  Test B rating (% disease control): 100%
[3]; "*" compound tested at 40 ppm
  Test C rating (% disease control): 99%

## O=C(COCC(F)(F)F)N1CCC(c2nc(C3=NOC(c4c(F)cccc4F)C3)cs2)CC1 (stereo not drawn) [compound 74]
[1]; "**" compound tested at 10 ppm
  Test A rating (% disease control): 100%
[2]; "**" compound tested at 10 ppm
  Test B rating (% disease control): 10%
[3]; "**" compound tested at 10 ppm
  Test C rating (% disease control): 97%

## O=C(COCCC(F)(F)F)N1CCC(c2nc(C3=NOC(c4c(F)cccc4F)C3)cs2)CC1 (stereo not drawn) [compound 75]
[1]; "**" compound tested at 10 ppm
  Test A rating (% disease control): 100%
[2]; "**" compound tested at 10 ppm
  Test B rating (% disease control): 100%
[3]; "**" compound tested at 10 ppm
  Test C rating (% disease control): 97%

## O=C(CCOCC(F)(F)F)N1CCC(c2nc(C3=NOC(c4c(F)cccc4F)C3)cs2)CC1 (stereo not drawn) [compound 77]
[1]; "**" compound tested at 10 ppm
  Test A rating (% disease control): 100%
[2]; "**" compound tested at 10 ppm
  Test B rating (% disease control): 100%
[3]; "**" compound tested at 10 ppm
  Test C rating (% disease control): 99%

## CC(CC(=O)N1CCC(c2nc(C3=NOC(c4ccccc4F)C3)cs2)CC1)C(F)(F)F (stereo not drawn) [Example 6, 1-[4-[4-[4,5-dihydro-5-(2-fluorophenyl)-3-isoxazolyl]-2-thiazolyl]-1-piperidinyl]-4,4,4-trifluoro-3-methyl-1-butanone]
[1]; [4]
  Test A rating (% disease control): 0%
[2]; [4]
  Test B rating (% disease control): 33%
[3]; [4]
  Test C rating (% disease control): 0%

## Cc1ccc(C)c(N=C(C#N)N2CCC(c3nc(C4=NOC(c5ccccc5)C4)cs3)CC2)c1 (stereo not drawn) [compound 32]
[1]; "*" compound tested at 40 ppm
  Test A rating (% disease control): 31%
[2]; "*" compound tested at 40 ppm
  Test B rating (% disease control): 58%
[3]; "*" compound tested at 40 ppm
  Test C rating (% disease control): 0%

## Cc1ccc(C)c(N=C(NC#N)N2CCC(c3nc(C4=NOC(c5c(F)cccc5F)C4)cs3)CC2)c1 (stereo not drawn) [compound 42]
[1]; "*" compound tested at 40 ppm
  Test A rating (% disease control): 99%
[2]; "*" compound tested at 40 ppm
  Test B rating (% disease control): 100%
[3]; "*" compound tested at 40 ppm
  Test C rating (% disease control): 99%

## O=C(C(=O)N1CCC(c2nc(C3=NOC(c4ccccc4F)C3)cs2)CC1)c1ccccc1 (stereo not drawn) [compound 45]
[1]; "*" compound tested at 40 ppm
  Test A rating (% disease control): 0%
[2]; "*" compound tested at 40 ppm
  Test B rating (% disease control): 0%
[3]; "*" compound tested at 40 ppm
  Test C rating (% disease control): 0%

## Cc1ccc(C)c(C(=O)NC(=O)N2CCC(c3nc(C4=NOC(c5ccccc5F)C4)cs3)CC2)c1 (stereo not drawn) [compound 37]
[1]; "*" compound tested at 40 ppm
  Test A rating (% disease control): 0%
[2]; "*" compound tested at 40 ppm
  Test B rating (% disease control): 63%
[3]; "*" compound tested at 40 ppm
  Test C rating (% disease control): 0%

## 5-chloro-1-[4-[4-[4,5-dihydro-5-(2-fluorophenyl)-3-isoxazolyl]-2-thiazolyl]-1-piperidinyl-1-pentanone [Example 7]
[1]; [4]
  Test A rating (% disease control): 98%
[2]; [4]
  Test B rating (% disease control): 100%
[3]; [4]
  Test C rating (% disease control): 71%

## CSC(=Nc1cc(C)ccc1C)N1CCC(c2nc(C3=NOC(c4c(F)cccc4F)C3)cs2)CC1.I (stereo not drawn) [compound 26]
[1]; "*" compound tested at 40 ppm
  Test A rating (% disease control): 99%
[2]; "*" compound tested at 40 ppm
  Test B rating (% disease control): 100%
[3]; "*" compound tested at 40 ppm
  Test C rating (% disease control): 93%

## CCNC(=O)N1CCC(c2nc(C3=NOC(c4ccccc4)C3)cs2)CC1 (stereo not drawn) [compound 13]
[1]; [4]
  Test A rating (% disease control): 57%
[2]; [4]
  Test B rating (% disease control): 99%
[3]; [4]
  Test C rating (% disease control): 0%

## CC(C)NC(=O)N1CCC(c2nc(C3=NOC(c4ccccc4)C3)cs2)CC1 (stereo not drawn) [compound 15]
[1]; [4]
  Test A rating (% disease control): 86%
[2]; [4]
  Test B rating (% disease control): 100%
[3]; [4]
  Test C rating (% disease control): 91%

## Cc1ccc(C)c(N=C(N(C)C)N2CCC(c3nc(C4=NOC(c5c(F)cccc5F)C4)cs3)CC2)c1 (stereo not drawn) [compound 38]
[1]; "*" compound tested at 40 ppm
  Test A rating (% disease control): 8%
[2]; "*" compound tested at 40 ppm
  Test B rating (% disease control): 33%
[3]; "*" compound tested at 40 ppm
  Test C rating (% disease control): 0%

## CONC(=Nc1cc(C)ccc1C)N1CCC(c2nc(C3=NOC(c4c(F)cccc4F)C3)cs2)CC1 (stereo not drawn) [compound 34]
[1]; "*" compound tested at 40 ppm
  Test A rating (% disease control): 100%
[2]; "*" compound tested at 40 ppm
  Test B rating (% disease control): 100%
[3]; "*" compound tested at 40 ppm
  Test C rating (% disease control): 97%
